Assay results published in the NIST ThermoML archive (doi:10.1016/j.jct.2005.03.006).
Numbers after ± are expanded uncertainties.

Conditions: Liquid, Buoyancy - hydrostatic balance

CCc1ccccc1 [ethylbenzene]
mass density [kg/m3]
Conditions | 292.25 K | 313.45 K | 336.55 K | 358.81 K | 382.95 K | 408.05 K | 434.45 K | 461.85 K | 490.15 K
100 kPa | 867 ± 10 | 849.1 ± 10 | 828.7 ± 10 | 808.4 ± 10 | – | – | – | – | –
5000 kPa | 870.8 ± 10 | 853.1 ± 10 | 833.6 ± 10 | 814.5 ± 10 | 793 ± 10 | 770.4 ± 10 | 746 ± 10 | 718.6 ± 10 | 687 ± 10
9900 kPa | 874 ± 10 | – | 838.5 ± 10 | 820 ± 10 | 799 ± 10 | 777.3 ± 10 | 754.4 ± 10 | 728.8 ± 10 | 700 ± 10
19700 kPa | 881.3 ± 10 | 864.4 ± 10 | 845.8 ± 10 | 827.6 ± 10 | 808.1 ± 10 | 788.5 ± 10 | 768.1 ± 10 | 746.2 ± 10 | 720.9 ± 10
29500 kPa | 887.1 ± 10 | 871.4 ± 10 | 854 ± 10 | 836.8 ± 10 | 818.2 ± 10 | 799.7 ± 10 | 780.5 ± 10 | 760 ± 10 | 737.2 ± 10
39300 kPa | 893 ± 10 | 877.6 ± 10 | 860.9 ± 10 | 844.8 ± 10 | 827.1 ± 10 | 809.5 ± 10 | 791 ± 10 | 771.7 ± 10 | 750.7 ± 10
49100 kPa | 898.5 ± 10 | 883.6 ± 10 | 867.8 ± 10 | 852.4 ± 10 | 835.1 ± 10 | 817.9 ± 10 | 800.4 ± 10 | 782.3 ± 10 | 762.9 ± 10
58900 kPa | 903.8 ± 10 | 889.4 ± 10 | 873.6 ± 10 | 858.6 ± 10 | 842.5 ± 10 | 826 ± 10 | 808.6 ± 10 | 791 ± 10 | 773.2 ± 10

CO [methanol]
mass density [kg/m3]
Conditions | 298.15 K | 323.15 K | 348.15 K | 373.15 K | 398.15 K | 423.15 K | 448.15 K | 473.15 K | 498.15 K
100 kPa | 792.6 ± 10 | 770.3 ± 10 | – | – | – | – | – | – | –
5000 kPa | 796.2 ± 10 | 774.2 ± 10 | 748.9 ± 10 | 721.1 ± 10 | 690 ± 10 | 652.8 ± 10 | 610.4 ± 10 | 553.4 ± 10 | –
9900 kPa | 801 ± 10 | 778.2 ± 10 | 753.9 ± 10 | 727.7 ± 10 | 697.6 ± 10 | 665.2 ± 10 | 628.9 ± 10 | 585 ± 10 | 525 ± 10
19700 kPa | 808.4 ± 10 | 787 ± 10 | 764.1 ± 10 | 739.3 ± 10 | 712.8 ± 10 | 683.6 ± 10 | 652.4 ± 10 | 620.2 ± 10 | 584.8 ± 10
29500 kPa | 816 ± 10 | 795 ± 10 | 773.1 ± 10 | 750.4 ± 10 | 725.4 ± 10 | 698.8 ± 10 | 670.8 ± 10 | 642 ± 10 | 613.4 ± 10
39300 kPa | 823.8 ± 10 | 803.4 ± 10 | 782.6 ± 10 | 760.2 ± 10 | 736 ± 10 | 710.8 ± 10 | 685.6 ± 10 | 660.6 ± 10 | 636 ± 10
49100 kPa | 830 ± 10 | 811 ± 10 | 790.9 ± 10 | 769.6 ± 10 | 747.2 ± 10 | 723.9 ± 10 | 700 ± 10 | 677.2 ± 10 | 655 ± 10
58900 kPa | 836.3 ± 10 | 818.2 ± 10 | 798.9 ± 10 | 778.2 ± 10 | 757 ± 10 | 735 ± 10 | 713 ± 10 | 691.2 ± 10 | 670 ± 10
